Measured values reported in the SangsterLogP compilation.

In the case of `Nc1cccc(O)c1`, the logP is reported as 0.21.
Work on `NS(=O)(=O)c1ccc(Cl)cc1` yielded a logP of 1.15.
With `Cc1c(C)c(C)c(C)c(C)c1C` the logP was 5.11.
With `CN1CCN(CCCN2c3ccccc3Sc3ccc(C(F)(F)F)cc32)CC1` the logP was 5.03.
`c1ccc2c(c1)Cc1ccccc1-2` showed a logP of 4.18.
Work on `O=C(O)Cc1ccc(F)cc1` yielded a logP of 1.55.
`Nc1ccn([C@H]2C[C@H](F)[C@@H](CO)O2)c(=O)n1` showed a logP of -0.89.
With `Nc1ccc(C(F)(F)F)cc1` the logP was 1.95.
With `C1CC1` the logP was 1.72.
Work on `O=C(NC(CO)C(O)c1ccc([N+](=O)[O-])cc1)C(Br)(Br)Br` (centres undefined) yielded a logP of 2.17.
Work on `CCCCCO` yielded a logP of 1.51.
Work on `Clc1nc2c(Cl)c(Cl)c(Cl)c(Cl)c2[nH]1` yielded a logP of 4.53.
Compound `CCNC(=O)c1ccc(S(N)(=O)=O)cc1` has a logP of 0.03.
`Nc1ccccc1-c1ccccc1` showed a logP of 2.84.
With `CCOC(=O)C=Cc1ccccc1` the logP was 2.99.
Work on `c1cnccn1` yielded a logP of -0.26.
In the case of `CCOC1(c2ccccc2)OCCN(C)C1C` (centres undefined), the logP is reported as 2.27.
In the case of `Cc1cnc(NC(=O)C2=C(O)c3ccccc3S(=O)(=O)N2C)s1`, the logP is reported as 3.43.
Work on `Cc1cc(C(=O)NN)ccn1` yielded a logP of -0.37.
Work on `Cc1c[nH]c(=O)[nH]c1=O` yielded a logP of -0.62.
Work on `C=CCC1(CCCC)C(=O)NC(=O)NC1=O` yielded a logP of 2.31.
Work on `C=CCBr` yielded a logP of 1.79.
`O=C(O)COc1ccc(F)cc1` showed a logP of 1.64.
Compound `N#Cc1ccccc1` has a logP of 1.56.
`CC(C)(C)NC[C@H](O)COc1ccccc1C1CCCC1` gave a logP of 4.15.
Compound `NS(=O)(=O)c1ccc(Br)cc1` has a logP of 1.36.
`Cc1ccc(C)c(C)c1` showed a logP of 3.63.
In the case of `CC(N)C(O)c1ccccc1` (centres undefined), the logP is reported as 0.67.
Work on `NC(=O)NO` yielded a logP of -1.8.
`O=[N+]([O-])c1cc[n+]([O-])c2c(F)cccc12` gave a logP of 1.
For `CNC(=O)Oc1ccc(F)cc1`, the logP was 1.28.
`O=C1CCCCCN1` showed a logP of -0.19.
For `O=C(Nc1ccccc1)c1ccccc1O`, the logP was 3.27.
For `Cn1cnc2c1c(=O)[nH]c(=O)n2C`, the logP was -0.78.
`N[C@@H](Cc1c[nH]c2ccccc12)C(=O)O` showed a logP of -1.06.
`CN(Cc1ccccc1)c1ccccc1` showed a logP of 4.22.
In the case of `CCOc1ccc(OC(=O)NC)cc1`, the logP is reported as 1.63.
`CNC(=O)OC` gave a logP of -0.06.
`CC(=O)Nc1ccc([N+](=O)[O-])cc1` gave a logP of 1.66.
`Nc1ccc(S(=O)(=O)Nc2nccs2)cc1` showed a logP of 0.05.
`CCCN(CCC)CCC` showed a logP of 2.79.
With `C[C@]12C[C@H](O)[C@H]3[C@@H](CCC4=CC(=O)CC[C@@]43C)[C@@H]1CC[C@@H]2C(=O)CO` the logP was 1.94.
`ClC=C(Cl)Cl` showed a logP of 2.42.
`CCCCCCCCCCCC(=O)O` showed a logP of 4.6.
Compound `CCOC(=O)Nc1ccccc1` has a logP of 2.3.
For `COC(=O)C(C#N)=NNc1c(Cl)cc(C(F)(F)F)cc1Cl`, the logP was 4.36.
`CC(=O)Nc1ccc(I)cc1` gave a logP of 2.71.
`NC(=O)c1ccc(Br)cc1` showed a logP of 1.76.
For `CCCCc1ccccc1`, the logP was 4.38.
In the case of `CC(=O)c1ccncc1`, the logP is reported as 0.48.
`c1ccc2c(c1)Nc1ccccc1S2` gave a logP of 4.15.
`O=c1ccn([C@H]2C[C@H](O)[C@@H](CO)O2)c(=O)[nH]1` showed a logP of -1.51.
With `Nc1ncnc2[nH]cnc12` the logP was -0.09.
With `Clc1ccccc1Cl` the logP was 3.43.
With `CC(C)c1nnc(N2CCOCC2)n(N)c1=O` the logP was 0.49.
For `COc1ccc(CC(C)N)cc1OC` (centres undefined), the logP was 1.2.
Compound `CC(=O)c1ccccc1O` has a logP of 1.92.
`Oc1c(F)c(F)c(F)c(F)c1F` showed a logP of 3.23.
Work on `COC(=O)C(C#N)=NNc1cc(Cl)c(Cl)cc1Cl` yielded a logP of 5.15.
In the case of `Cc1c[n+]([O-])c2ccccc2c1[N+](=O)[O-]`, the logP is reported as 1.06.
With `CC(C)Sc1nnc(C(C)C)c(=O)n1N` the logP was 2.06.
Work on `Cc1ncc(CO)c(CN)c1O` yielded a logP of -1.3.
In the case of `Cc1cc(Cl)ccc1NN=C(C#N)C(=O)C(C)C`, the logP is reported as 4.31.
With `CC(N)C(O)c1cccc(O)c1` (centres undefined) the logP was -0.27.
`CC(C)(C)CO` gave a logP of 1.31.
`CC(=O)C(C#N)=NNc1ccc([N+](=O)[O-])cc1[N+](=O)[O-]` gave a logP of 3.4.
In the case of `O=NN(CCCl)C(=O)NC1CCCCC1`, the logP is reported as 2.83.
In the case of `c1ccsc1`, the logP is reported as 1.81.
With `c1ccc(-c2ccccc2)cc1` the logP was 3.98.
